{"source": "patent US11981675B1", "about": "“Pyrrolo[3,2-C]quinoline-2,3-dione compounds as CK2 inhibitors” (KING FAISAL UNIVERSITY, priority 2023, dated 2024)", "key": {"H1299 (lung)": {"tested_on": "H1299 (lung)", "experiment": "In vitro cytotoxic activity assay (MTT), H1299", "type": "cell-based", "conditions": "Homo sapiens, NCI-H1299; H1299 (lung) cells, exposed for 96 hours; read-out: Cytotoxicity activity IC50 (50% inhibition of cell proliferation)", "experimental": "(§1) Compounds 1-16 were screened for their in vitro cytotoxic activity utilizing a 3-(4,5-dimethyl-thiazol-2-yl)-2,5-diphenyltetrazolium bromide (MTT) assay against selected cancer human cell lines consisting of PC3 (prostate), HCT116 (colon), A375 (melanoma), H1299 (lung), MIAPaCa-2 (pancreas), HL60 (leukemia), MCF7 (breast), MDA-MB-231 (breast) (T. Mosmann, J. Immunol. Meth., 1983, 65, 55-63). The cells were cultured at 37° C. in RMPI1640 medium supplemented with 10% fetal bovine serum, 50 IU/mL penicillin, and 50 μg/mL streptomycin in a 5% CO2 incubator. All cells were sub-cultured 3 times/week by trypsinisation. Viable cells were seeded and allowed to adhere for 12 h before a test drug was added in 96-well plates at an initial density of 1.0×10^5 cells/mL. Tumor cell lines were separately exposed to various concentrations of the tested compounds followed by incubation at a temperature of 37° C. during 96 hours inside a medium of fresh RMPI 1640. Cells were subsequently incubated at 37° C. using MTT at 0.5 mg/mL during 4 hours. After removal of supernatant, formazan crystals were dissolved in isopropanol and the optical density was measured at 570 nm. CX-4945 was used as a positive control."}, "HL60 (leukemia)": {"tested_on": "HL60 (leukemia)", "experiment": "In vitro cytotoxic activity assay (MTT), HL60", "type": "cell-based", "conditions": "Homo sapiens, HL-60; HL60 (leukemia) cells, exposed for 96 hours; read-out: Cytotoxicity activity IC50 (50% inhibition of cell proliferation)", "experimental": "as §1"}, "HCT116 (colon)": {"tested_on": "HCT116 (colon)", "experiment": "In vitro cytotoxic activity assay (MTT), HCT116", "type": "cell-based", "conditions": "Homo sapiens, HCT-116; HCT116 (colon) cells, exposed for 96 hours; read-out: Cytotoxicity activity IC50 (50% inhibition of cell proliferation)", "experimental": "as §1"}, "[1]": {"target": "T1, recombinant human CK2 (RRββ-holoenzyme) (Homo sapiens, UniProt P68400)", "T1 construct": "purchased Millipore", "T1 sequence (P68400 whole entry)": "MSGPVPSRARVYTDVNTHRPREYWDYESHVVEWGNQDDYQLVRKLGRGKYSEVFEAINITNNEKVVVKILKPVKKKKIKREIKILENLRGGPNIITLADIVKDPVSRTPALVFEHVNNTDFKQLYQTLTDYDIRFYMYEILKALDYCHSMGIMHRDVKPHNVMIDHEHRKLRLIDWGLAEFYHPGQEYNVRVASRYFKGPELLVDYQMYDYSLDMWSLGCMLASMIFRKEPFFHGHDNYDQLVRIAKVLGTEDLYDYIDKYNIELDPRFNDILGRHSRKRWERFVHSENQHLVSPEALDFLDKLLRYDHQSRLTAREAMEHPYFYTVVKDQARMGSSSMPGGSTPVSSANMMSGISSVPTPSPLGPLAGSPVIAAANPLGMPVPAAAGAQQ", "T1 sequence (P67870 whole entry partner)": "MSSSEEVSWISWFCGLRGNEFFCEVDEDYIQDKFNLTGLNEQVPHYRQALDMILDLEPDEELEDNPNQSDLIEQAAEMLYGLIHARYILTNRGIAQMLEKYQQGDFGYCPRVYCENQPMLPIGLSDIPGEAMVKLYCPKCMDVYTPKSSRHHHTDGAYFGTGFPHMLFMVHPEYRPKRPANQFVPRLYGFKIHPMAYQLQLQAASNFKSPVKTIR", "experiment": "CK2 Kinase Assay (radiometric, [γ-33P] ATP)", "type": "biochemical", "conditions": "final ATP concentration 15 μM, 10 min at 30° C., eight concentrations; read-out: protein kinase CK2 activity IC50", "experimental": "CK2 Kinase Assay was conducted using the protocol as described in Pierre F. et al; J. Med. Chem. 2011, 54, 635-654. The tested compounds in aqueous solution were added at a volume of 10 μL to a reaction mixture comprising 10 μL of assay dilution buffer (ADB; 20 mM MOPS, pH 7.2, 25 mM β-glycerol phosphate, 5 mM EGTA, 1 mM sodium orthovanadate, and 1 mM dithiothreitol), 10 μL of substrate peptide (RRRDDDSDDD, dissolved in ADB at a concentration of 1 mM), 10 μL of recombinant human CK2 (RRββ-holoenzyme, 25 ng dissolved in ADB; Millipore). Reactions were initiated by the addition of 10 μL of ATP solution (90% 75 mM MgCl2, 75 μM ATP (final ATP concentration:15 μM) dissolved in ADB; 10% [γ-33P] ATP (stock 1 mCi/100 μL; 3000 Ci/mmol (Perkin-Elmer) and maintained for 10 min at 30° C. The reactions were quenched with 100 μL of 0.75% phosphoric acid and then transferred to and filtered through a phosphor cellulose filter plate (Millipore). After washing each well five times with 0.75% phosphoric acid, the plate was dried under vacuum for 5 min and, following the addition of 15 μL of scintillation fluid to each well, the residual radioactivity was measured using a Wallac luminescence counter. The IC50 values were derived from eight concentrations of test inhibitors."}, "MIAPaCa-2 (pancreas)": {"tested_on": "MIAPaCa-2 (pancreas)", "experiment": "In vitro cytotoxic activity assay (MTT), MIAPaCa-2", "type": "cell-based", "conditions": "Homo sapiens, MIA PaCa-2; MIAPaCa-2 (pancreas) cells, exposed for 96 hours; read-out: Cytotoxicity activity IC50 (50% inhibition of cell proliferation)", "experimental": "as §1"}, "MCF7 (breast)": {"tested_on": "MCF7 (breast)", "experiment": "In vitro cytotoxic activity assay (MTT), MCF7", "type": "cell-based", "conditions": "Homo sapiens; MCF7 (breast) cells, exposed for 96 hours; read-out: Cytotoxicity activity IC50 (50% inhibition of cell proliferation)", "experimental": "as §1"}, "PC3 (prostate)": {"tested_on": "PC3 (prostate)", "experiment": "In vitro cytotoxic activity assay (MTT), PC3", "type": "cell-based", "conditions": "Homo sapiens, Prostate cell; PC3 (prostate) cells, exposed for 96 hours; read-out: Cytotoxicity activity IC50 (50% inhibition of cell proliferation)", "experimental": "as §1"}, "MDA-MB-231 (breast)": {"tested_on": "MDA-MB-231 (breast)", "experiment": "In vitro cytotoxic activity assay (MTT), MDA-MB-231", "type": "cell-based", "conditions": "Homo sapiens; MDA-MB-231 (breast) cells, exposed for 96 hours; read-out: Cytotoxicity activity IC50 (50% inhibition of cell proliferation)", "experimental": "as §1"}, "A375 (melanoma)": {"tested_on": "A375 (melanoma)", "experiment": "In vitro cytotoxic activity assay (MTT), A375", "type": "cell-based", "conditions": "Homo sapiens, A-375; A375 (melanoma) cells, exposed for 96 hours; read-out: Cytotoxicity activity IC50 (50% inhibition of cell proliferation)", "experimental": "as §1"}}}
{"smiles": "O=C1Nc2c(c(Nc3cccc(Cl)c3)nc3cc(C(=O)O)ccc23)C1=O", "note": "[Compound (1), 4-((3-chlorophenyl)amino)-2,3-dioxo-2,3-dihydro-1H-pyrrolo[3,2-c]quinoline-7-carboxylic acid]", "values": [{"measurement": "IC50", "setting": "H1299 (lung)", "result": 1.9, "unit": "µM"}, {"measurement": "IC50", "setting": "HL60 (leukemia)", "result": 3.6, "unit": "µM"}, {"measurement": "IC50", "setting": "HCT116 (colon)", "result": 1.6, "unit": "µM"}, {"measurement": "IC50", "setting": "[1]", "result": 0.022, "unit": "µM"}, {"measurement": "IC50", "setting": "MIAPaCa-2 (pancreas)", "result": 0.9, "unit": "µM"}, {"measurement": "IC50", "setting": "MCF7 (breast)", "result": 5.2, "unit": "µM"}, {"measurement": "IC50", "setting": "PC3 (prostate)", "result": 1.3, "unit": "µM"}, {"measurement": "IC50", "setting": "MDA-MB-231 (breast)", "result": 4.1, "unit": "µM"}, {"measurement": "IC50", "setting": "A375 (melanoma)", "result": 3.2, "unit": "µM"}]}
